Test [1] has as its target recombinant human EGFR exon 19 deletion/C797S double mutant protein (Homo sapiens (Human), UniProt P00533, C797S/DEL746-750). Kind of test: Biological Activity Assay C: biochemical assay against EGFR exon 19 deletion/C797S protein (EGFR d19/CS). An outline of the steps: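 Compounds were tested as 16-point serial dilutions (final DMSO 2.5%) with a Phosphosens peptide sensor/ATP working solution (40 uM/4 mM). The signal was read kinetically over 90 cycles at 120 s intervals. IC50s came from 4-parameter fits of per-well slopes.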

A further test relates to Ba/F3_EGFR WT cells. Kind of test: Biological Activity Assay D: BaF3 cell proliferation assay, EGFR wild-type (BaF3 WT). The format is cell-based. The settings on record: Ba/F3 EGFR, read-out: BaF3 WT IC50.
Another test relates to BaF3_EGFR LR/CS cells. Nature of the test: Biological Activity Assay D: BaF3 cell proliferation assay, EGFR L858R/C797S mutant (BaF3 LR/CS). The format is cell-based. The conditions noted are these: Ba/F3 EGFR, read-out: BaF3 LR/CS IC50.
A further test deals with BaF3_EGFR d19/CS cells. Kind of test: Biological Activity Assay D: BaF3 cell proliferation assay, EGFR exon 19 deletion/C797S (BaF3 d19/CS). The format is cell-based. The settings on record: Ba/F3 EGFR, read-out: BaF3 d19/CS IC50.
[2] abbreviates: Ba/F3_EGFR WT cells, ~72 hours, CellTiter-Glo.
Where [3] appears, read: BaF3_EGFR LR/CS cells, ~72 hours, CellTiter-Glo.
[4] abbreviates: BaF3_EGFR d19/CS cells, ~72 hours, CellTiter-Glo.

Like-named read-outs stand apart in the source and are kept apart here.

Chain of recombinant human EGFR exon 19 deletion/C797S double mutant protein (P00533 other isoform, or with tags, fused parts or gaps C797S/del 1-668/del 746-750 limits assumed): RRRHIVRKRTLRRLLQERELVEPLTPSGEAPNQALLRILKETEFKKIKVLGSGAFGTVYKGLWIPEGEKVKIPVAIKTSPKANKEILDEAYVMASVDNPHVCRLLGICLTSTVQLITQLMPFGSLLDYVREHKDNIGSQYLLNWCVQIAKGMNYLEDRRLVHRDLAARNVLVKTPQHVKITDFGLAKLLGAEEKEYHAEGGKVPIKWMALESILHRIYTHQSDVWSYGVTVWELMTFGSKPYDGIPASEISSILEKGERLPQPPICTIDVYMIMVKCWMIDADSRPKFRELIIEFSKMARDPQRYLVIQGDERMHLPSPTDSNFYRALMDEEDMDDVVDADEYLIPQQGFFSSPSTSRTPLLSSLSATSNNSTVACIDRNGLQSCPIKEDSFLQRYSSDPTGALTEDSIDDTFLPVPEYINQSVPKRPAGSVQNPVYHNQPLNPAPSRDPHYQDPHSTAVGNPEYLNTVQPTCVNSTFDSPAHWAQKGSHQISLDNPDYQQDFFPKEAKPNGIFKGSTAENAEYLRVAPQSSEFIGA

Consider `Fc1ccc(-c2nn([C@H]3CCOC[C@@H]3F)cc2-c2ncnc3oc(-c4ccccc4)cc23)cc1` (racemic) [Example 151, 4-[1-(3-fluorooxan-4-yl)-3-(4-fluorophenyl)-1H-pyrazol-4-yl]-6-phenylfuro[2,3-d]pyrimidine], for which the IC50 in test [1] came to 1.45 nM; in the test on Ba/F3_EGFR WT cells (setting [2]), 1870 nM; in the test with BaF3_EGFR LR/CS cells (setting [3]), 16.1 nM; in the test with BaF3_EGFR d19/CS cells (setting [4]), 68.1 nM.
Regarding `COc1ncccc1-c1cc2c(-c3cn(CC(F)(F)CO)nc3-c3ccc(F)cc3)ncnc2o1` [Example 286, 2,2-difluoro-3-{3-(4-fluorophenyl)-4-[6-(2-methoxypyridin-3-yl)furo[2,3-d]pyrimidin-4-yl]-1H-pyrazol-1-yl}propan-1-ol], the IC50 in test [1] came to 0.203 nM; with Ba/F3_EGFR WT cells (setting [2]) it was 1110 nM; with BaF3_EGFR LR/CS cells (setting [3]), 20.1 nM; in the test with BaF3_EGFR d19/CS cells (setting [4]) it was 15.8 nM.
With `N#CCCn1cc(-c2ncnc3oc(-c4ccccn4)cc23)c(-c2ccc(F)cc2)n1` [Example 269, 3-{3-(4-fluorophenyl)-4-[6-(pyridin-2-yl)furo[2,3-d]pyrimidin-4-yl]-1H-pyrazol-1-yl}propanenitrile], the IC50 in test [1] amounted to 0.082 nM; in the test with Ba/F3_EGFR WT cells (setting [2]), 392 nM; with BaF3_EGFR LR/CS cells (setting [3]), 8.63 nM; in the test on BaF3_EGFR d19/CS cells (setting [4]), 7.72 nM.
Regarding `CC(C)(O)Cn1cc(-c2ncnc3oc(-c4cccc(F)n4)cc23)c(-c2ccc(F)cc2)n1` [Example 281, 1-{3-(4-fluorophenyl)-4-[6-(6-fluoropyridin-2-yl)furo[2,3-d]pyrimidin-4-yl]-1H-pyrazol-1-yl}-2-methylpropan-2-ol], the IC50 was found to be 0.425 nM in test [1], 1840 nM in the test with Ba/F3_EGFR WT cells (72 h), 80.7 nM in the test with BaF3_EGFR LR/CS cells (72 h) and 57.1 nM in the test on BaF3_EGFR d19/CS cells (72 h).
As to `O=S1(=O)CC(n2cc(-c3ncnc4oc(C5=CCCNC5)cc34)c(-c3ccc(F)cc3)n2)C1` [Example 159, 3-{3-(4-fluorophenyl)-4-[6-(1,2,5,6-tetrahydropyridin-3-yl)furo[2,3-d]pyrimidin-4-yl]-1H-pyrazol-1-yl}-1λ6-thietane-1,1-dione], the IC50 stood at 3.79 nM in test [1], 6050 nM in the test with Ba/F3_EGFR WT cells (setting [2]), 511 nM in the test with BaF3_EGFR LR/CS cells (setting [3]) and 267 nM in the test with BaF3_EGFR d19/CS cells (setting [4]).
Take `Oc1ncccc1-c1cc2c(-c3cn([C@H]4C[C@@H](F)C4)nc3-c3ccc(F)cc3)ncnc2o1` [Example 287, 3-(4-{1-[(1s,3s)-3-fluorocyclobutyl]-3-(4-fluorophenyl)-1H-pyrazol-4-yl}furo[2,3-d]pyrimidin-6-yl)pyridin-2-ol]: the IC50 in test [1] stood at 0.213 nM; in the test with Ba/F3_EGFR WT cells (setting [2]), 613 nM; in the test with BaF3_EGFR LR/CS cells (setting [3]), 8.63 nM; with BaF3_EGFR d19/CS cells (setting [4]), 8.85 nM.
As for `Fc1ccc(-c2nn(CCOC(F)F)cc2-c2ncnc3oc(-c4ccccc4)cc23)cc1` [Example 231, 4-{1-[2-(difluoromethoxy)ethyl]-3-(4-fluorophenyl)-1H-pyrazol-4-yl}-6-phenylfuro[2,3-d]pyrimidine], the IC50 in test [1] was determined as 0.46 nM; with Ba/F3_EGFR WT cells (setting [2]), 660 nM; with BaF3_EGFR LR/CS cells (setting [3]) it was 17.9 nM; in the test on BaF3_EGFR d19/CS cells (setting [4]), 35.4 nM.
Regarding `CC(=O)N1CCC=C(c2cc3c(-c4cn(C5CS(=O)(=O)C5)nc4-c4ccc(F)cc4)ncnc3o2)C1` [Example 209, 3-{4-[6-(1-acetyl-1,2,5,6-tetrahydropyridin-3-yl)furo[2,3-d]pyrimidin-4-yl]-3-(4-fluorophenyl)-1H-pyrazol-1-yl}-1λ6-thietane-1,1-dione], the IC50 in test [1] amounted to 0.44 nM; in the test with Ba/F3_EGFR WT cells (setting [2]) it was 1940 nM; in the test with BaF3_EGFR LR/CS cells (setting [3]), 296 nM; in the test with BaF3_EGFR d19/CS cells (setting [4]), 160 nM.
For `Cc1noc(-c2cc3c(-c4cn(C5CS(=O)(=O)C5)nc4-c4ccc(F)cc4)ncnc3o2)n1` [Example 223, 3-{3-(4-fluorophenyl)-4-[6-(3-methyl-1,2,4-oxadiazol-5-yl)furo[2,3-d]pyrimidin-4-yl]-1H-pyrazol-1-yl}-1λ6-thietane-1,1-dione], the IC50 is 21.6 nM in test [1], above 20000 nM in the test with Ba/F3_EGFR WT cells (setting [2]), 2200 nM in the test on BaF3_EGFR LR/CS cells (setting [3]) and 893 nM in the test on BaF3_EGFR d19/CS cells (setting [4]).

The values above are taken from patent publication US20250034159A1, “INHIBITORS OF EPIDERMAL GROWTH FACTOR RECEPTOR” (ORIC Pharmaceuticals, Inc., priority 2021, published 2025).
